According to US8293768B2, “Organic compounds” (Novartis AG, priority 2006, dated 2012):

Cc1nc(N2CCN(Cc3ccc(C(F)(F)F)o3)C2=O)sc1C(=O)NCc1ccccc1 [Example 23.4, N-benzyl-4-methyl-2-(2-oxo-3-((5-(trifluoromethyl)furan-2-yl)methyl)imidazolidin-1-yl)thiazole-5-carboxamide]
melting point: 143 to 145 °C

Cc1nc(N2CCN(Cc3ccccc3C(=O)O)C2=O)sc1C(=O)NCc1ccccc1 [Example 25.4, 2-((3-(5-(benzylcarbamoyl)-4-methylthiazol-2-yl)-2-oxoimidazolidin-1-yl)methyl)benzoic acid]
melting point: 153 to 156 °C

Cc1nc(N2CCN(CC3CCCCC3)C2=O)sc1C(=O)NCc1cccnc1 [Example 9.35, 2-(3-(cyclohexylmethyl)-2-oxoimidazolidin-1-yl)-4-methyl-N-(pyridin-3-ylmethyl)thiazole-5-carboxamide]
melting point: 134 to 136 °C

Cc1cc(N2CCN(Cc3ccc(N)cc3)C2=O)sc1C(=O)NCc1cccnc1 [Example 58, 5-(3-(4-aminobenzyl)-2-oxoimidazolidin-1-yl)-3-methyl-N-(pyridin-3-ylmethyl)thiophene-2-carboxamide]
melting point: 118 to 120 °C

Cc1cc(-c2sc(N3CCN(Cc4ccc(F)cc4)C3=O)nc2C)n[nH]1 [Example 40.1, 1-(4-fluorobenzyl)-3-(4-methyl-5-(5-methyl-1H-pyrazol-3-yl)thiazol-2-yl)imidazolidin-2-one]
melting point: 218 to 221 °C

Cc1csc(N2CCN(Cc3ccc(C(=O)n4nccc4C)cc3)C2=O)n1 [Example 8.8, 1-(4-(5-methyl-1H-pyrazole-1-carbonyl)benzyl)-3-(4-methylthiazol-2-yl)imidazolidin-2-one]
melting point: 96 to 97 °C

Cc1nc(N2CCN(Cc3ccc(F)cc3)C2=O)sc1C(=O)NCc1ccc(F)cc1 [Example 9.20, N-(4-fluorobenzyl)-2-(3-(4-fluorobenzyl)-2-oxoimidazolidin-1-yl)-4-methylthiazole-5-carboxamide]
melting point: 177 to 178 °C

Cc1nc(N2C(=O)N(Cc3ccc(C(F)(F)F)cc3)CC2O)sc1C(=O)NCc1cccnc1 (centres unmarked) [Example 16.3, 2-(5-hydroxy-2-oxo-3-(4-(trifluoromethyl)benzyl)imidazolidin-1-yl)-4-methyl-N-(pyridin-3-ylmethyl)thiazole-5-carboxamide]
melting point: 171 to 172 °C

COC(=O)c1cccc(CN2CCN(c3nc(C)c(C(C)=O)s3)C2=O)c1 [Example 5.17, methyl 3-((3-(5-acetyl-4-methylthiazol-2-yl)-2-oxoimidazolidin-1-yl)methyl)benzoate]
melting point: 122 to 124 °C

Cc1nc(-n2ccn(CCc3ccc(F)cc3)c2=O)sc1C(=O)NCc1cccnc1 [Example 17.1, 2-(3-(4-fluorophenethyl)-2-oxo-2,3-dihydro-1H-imidazol-1-yl)-4-methyl-N-(pyridin-3-ylmethyl)thiazole-5-carboxamide]
melting point: 160 to 162 °C

Cc1nc(N2CCN(Cc3ccccc3)C2=O)sc1C(=O)NCc1ccc(F)c(F)c1 [Example 9.5, 2-(3-benzyl-2-oxoimidazolidin-1-yl)-N-(3,4-difluorobenzyl)-4-methylthiazole-5-carboxamide]
melting point: 152 to 153 °C

Cc1nc(N2CCN(CC(=O)NCc3ccc(F)cc3)C2=O)sc1C(=O)NCc1ccccc1 [Example 15.5, N-benzyl-2-(3-(2-(4-fluorobenzylamino)-2-oxoethyl)-2-oxoimidazolidin-1-yl)-4-methylthiazole-5-carboxamide]
melting point: 232 to 234 °C

Cc1nc(N2CCN(CCCc3ccccc3)C2=O)sc1C(=O)NCc1cccnc1 [Example 9.27, 4-methyl-2-(2-oxo-3-(3-phenylpropyl)imidazolidin-1-yl)-N-(pyridin-3-ylmethyl)thiazole-5-carboxamide]
melting point: 127 to 128 °C

Cc1ncc(CNC(=O)c2sc(N3CCN(Cc4ccc(F)cc4)C3=O)nc2C)s1 [Example 32.12, 2-(3-(4-fluorobenzyl)-2-oxoimidazolidin-1-yl)-4-methyl-N-((2-methylthiazol-5-yl)methyl)thiazole-5-carboxamide]
melting point: 213 to 215 °C

Cc1nc(N2CCN(Cc3ccc(OC(F)(F)F)cc3)C2=O)sc1C(=O)NCc1ccccc1 [Example 9.23, N-benzyl-4-methyl-2-(2-oxo-3-(4-(trifluoromethoxy)benzyl)imidazolidin-1-yl)thiazole-5-carboxamide]
melting point: 197 to 198 °C

Cc1cc(-n2cnn(Cc3ccc(S(C)(=O)=O)cc3)c2=O)sc1C(=O)NCc1cccnc1 [Example 31.4, 3-methyl-5-(1-(4-(methylsulfonyl)benzyl)-5-oxo-1H-1,2,4-triazol-4(5H)-yl)-N-(pyridin-3-ylmethyl)thiophene-2-carboxamide]
melting point: 208 to 210 °C

CCOC(=O)c1sc(N2CCN(Cc3ccc(C(F)(F)F)cc3)C2=O)nc1C [Example 5.2, ethyl 4-methyl-2-(2-oxo-3-(4-(trifluoromethyl)benzyl)imidazolidin-1-yl)thiazole-5-carboxylate]
melting point: 126 to 127 °C

Cc1nc(N2CCN(Cc3ccccc3)C2=O)sc1C(=O)NCc1ccncc1 [Example 9.9, 2-(3-benzyl-2-oxoimidazolidin-1-yl)-4-methyl-N-(pyridin-4-ylmethyl)thiazole-5-carboxamide]
melting point: 96 to 97 °C

Cc1csc(N2CCN(Cc3ccc(C(=O)NCc4ccccc4)cc3)C2=O)n1 [Example 8.9, N-benzyl-4-((3-(4-methylthiazol-2-yl)-2-oxoimidazolidin-1-yl)methyl)benzamide]
melting point: 185 to 186 °C

Cc1cnc(CNC(=O)c2sc(N3CCN(CC4CC4)C3=O)nc2C)cn1 [Example 9.34, 2-(3-(cyclopropylmethyl)-2-oxoimidazolidin-1-yl)-4-methyl-N-((5-methylpyrazin-2-yl)methyl)thiazole-5-carboxamide]
melting point: 161 to 163 °C

O=C(NCc1cccnc1)c1cnc(N2CCN(CC3CC3)C2=O)s1 [Example 26, 2-(3-(cyclopropylmethyl)-2-oxoimidazolidin-1-yl)-N-(pyridin-3-ylmethyl)thiazole-5-carboxamide]
melting point: 190 to 192 °C

Cc1nc(N2C[C@@H](Cc3ccccc3)NC2=O)sc1C(=O)NCc1ccccc1 [Example 9.25, (R)—N-benzyl-2-(4-benzyl-2-oxoimidazolidin-1-yl)-4-methylthiazole-5-carboxamide]
melting point: 212 to 214 °C

Cc1nc(N2CCN(Cc3ccc(OC(F)(F)F)cc3)C2=O)sc1C(=O)NC[C@H](O)c1ccccc1 [Example 9.29, (R)—N-(2-hydroxy-2-phenylethyl)-4-methyl-2-(2-oxo-3-(4-(trifluoromethoxy)benzyl)imidazolidin-1-yl)thiazole-5-carboxamide]
melting point: 149 to 151 °C

Cc1nc(N2CCN(Cc3ccc(F)cc3)C2=O)sc1C(=O)NCc1ccncc1 [Example 32.23, 2-(3-(4-fluorobenzyl)-2-oxoimidazolidin-1-yl)-4-methyl-N-(pyridin-4-ylmethyl)thiazole-5-carboxamide]
melting point: 146 to 149 °C

Cc1nc(-n2cnn(Cc3ccc(F)cc3)c2=O)sc1C(=O)NCc1cc[nH]n1 [Example 21.9, N-((1H-pyrazol-3-yl)methyl)-2-(1-(4-fluorobenzyl)-5-oxo-1H-1,2,4-triazol-4(5H)-yl)-4-methylthiazole-5-carboxamide]
melting point: 178 to 179 °C

CCCCCN1CCN(c2nc(C)c(C(=O)NCc3cccnc3)s2)C1=O [Example 9.42, 4-methyl-2-(2-oxo-3-pentylimidazolidin-1-yl)-N-(pyridin-3-ylmethyl)thiazole-5-carboxamide]
melting point: 102 to 103 °C

Cc1cnc(CNC(=O)c2sc(-n3cnn(Cc4ccc(F)cc4)c3=O)cc2C)cn1 [Example 31.5, 5-(1-(4-fluorobenzyl)-5-oxo-1H-1,2,4-triazol-4(5H)-yl)-3-methyl-N-((5-methylpyrazin-2-yl)methyl)thiophene-2-carboxamide]
melting point: 189 to 191 °C

Cc1csc(N2CCN(Cc3ccc(C(=O)Nc4ccc(F)cc4)cc3)C2=O)n1 [Example 8.7, N-(4-fluorophenyl)-4-((3-(4-methylthiazol-2-yl)-2-oxoimidazolidin-1-yl)methyl)benzamide]
melting point: 206 to 207 °C

Cc1nc(-n2cnn(Cc3ccc(C(F)(F)F)o3)c2=O)sc1C(=O)NCc1cccnc1 [Example 21.6, 4-methyl-2-(5-oxo-1-((5-(trifluoromethyl)furan-2-yl)methyl)-1H-1,2,4-triazol-4(5H)-yl)-N-(pyridin-3-ylmethyl)thiazole-5-carboxamide]
melting point: 124 to 125 °C

Cc1nc(N2CCN(CCc3c[nH]c4ccccc34)C2=O)sc1C(=O)NCc1cccnc1 [Example 32.20, 2-(3-(2-(1H-indol-3-yl)ethyl)-2-oxoimidazolidin-1-yl)-4-methyl-N-(pyridin-3-ylmethyl)thiazole-5-carboxamide]
melting point: 198 to 201 °C

Cc1cc(-n2cnn(Cc3ccc(C(F)(F)F)cc3)c2=O)sc1C(=O)NCc1cccnc1 [Example 31.3, 3-methyl-5-(5-oxo-1-(4-(trifluoromethyl)benzyl)-1H-1,2,4-triazol-4(5H)-yl)-N-(pyridin-3-ylmethyl)thiophene-2-carboxamide]
melting point: 176 to 178 °C

Cc1nc(N2CCN(Cc3nccc4ccccc34)C2=O)sc1C(=O)NCc1cccnc1 [Example 32.1, 2-(3-(isoquinolin-1-ylmethyl)-2-oxoimidazolidin-1-yl)-4-methyl-N-(pyridin-3-ylmethyl)thiazole-5-carboxamide]
melting point: 151 to 153 °C

Cc1nc(N2CCN(Cc3ccccc3)C2=N)sc1C(=O)NCc1ccc(F)c(F)c1 [Example 27.5, 2-(3-benzyl-2-iminoimidazolidin-1-yl)-N-(3,4-difluorobenzyl)-4-methylthiazole-5-carboxamide]
melting point: 140 to 142 °C

Cc1nc(-n2cnn(CCOC(=O)NCc3ccc(F)cc3)c2=O)sc1C(=O)NCc1cccnc1 [Example 48, 2-(4-(4-methyl-5-(pyridin-3-ylmethylcarbamoyl)thiazol-2-yl)-5-oxo-4,5-dihydro-1H-1,2,4-triazol-1-yl)ethyl 4-fluorobenzylcarbamate]
melting point: 149 to 150 °C

Cc1nc(N2CCN(Cc3ccccc3)C2=O)sc1C(=O)NCc1cc(F)ccc1F [Example 9.2, 2-(3-benzyl-2-oxoimidazolidin-1-yl)-N-(2,5-difluorobenzyl)-4-methylthiazole-5-carboxamide]
melting point: 176 to 177 °C
